Test results taken from patent US20070049564A1 (Wyeth, priority 2005, published 2007).
≈ marks a conversion by molar mass, not a printed value. Read-outs that look alike come from different tables or passages of the source.

Key:
E. coli GC 2270 = test: MIC, broth microdilution; details: Escherichia coli
S. aureus GC 2216 = test: MIC, broth microdilution; details: Staphylococcus aureus
E. coli GC 2203 = test: MIC, broth microdilution; details: Escherichia coli
E. coli GC 3226 = test: MIC, broth microdilution; details: Escherichia coli
E. faecalis GC 2265 = test: MIC, broth microdilution; details: Enterococcus faecalis
E. coli GC 2271 = test: MIC, broth microdilution; details: Escherichia coli
S. aureus GC 6469 = test: MIC, broth microdilution; details: Staphylococcus aureus
E. faecium GC 4556 = test: MIC, broth microdilution; details: Enterococcus faecium
E. coli GC 2233 = test: MIC, broth microdilution; details: Escherichia coli
S. pyogenes GC 4563 = test: MIC, broth microdilution; details: Streptococcus pyogenes
E. coli GC 2232 = test: MIC, broth microdilution; details: Escherichia coli
E. coli GC 2234 = test: MIC, broth microdilution; details: Escherichia coli
P. aeruginosa GC 2214 = test: MIC, broth microdilution; details: Pseudomonas aeruginosa
E. coli GC 2231 = test: MIC, broth microdilution; details: Escherichia coli
Staph. = test: Range of MIC for Staph. strains, including MRSA; details: Staphylococcus aureus
E. coli = test: Range of MIC for E. coli strains; details: Escherichia coli
S. aureus GC 6466 = test: MIC, broth microdilution; details: Staphylococcus aureus
E. faecium GC 2243 = test: MIC, broth microdilution; details: Enterococcus faecium
S. aureus GC 6335 = test: MIC, broth microdilution; details: Staphylococcus aureus
E. coli GC 2236 = test: MIC, broth microdilution; details: Escherichia coli

- MIC (E. coli GC 2270; GC2270, read-out: MINIMAL INHIBITORY CONCENTRATION MIC, pre-incubated in Human Serum): 16 µg/mL (≈ 20.6 µM)
- MIC (E. coli GC 2270; GC2270, read-out: MINIMAL INHIBITORY CONCENTRATION MIC, pre-incubated in Mouse Serum): 0.5 µg/mL (≈ 0.643 µM)
- MIC (E. coli GC 2270; GC2270, read-out: MINIMAL INHIBITORY CONCENTRATION MIC, pre-incubated in Water): > 64 µg/mL
- MIC (S. aureus GC 2216; GC2216, read-out: MINIMAL INHIBITORY CONCENTRATION MIC, pre-incubated in Human Serum): 1 µg/mL (≈ 1.29 µM)
- MIC (S. aureus GC 2216; GC2216, read-out: MINIMAL INHIBITORY CONCENTRATION MIC, pre-incubated in Mouse Serum): 1 µg/mL (≈ 1.29 µM)
- MIC (S. aureus GC 2216; GC2216, read-out: MINIMAL INHIBITORY CONCENTRATION MIC, pre-incubated in Water): 2 µg/mL (≈ 2.57 µM)
- MIC (E. coli GC 2203; GC2203, read-out: MINIMAL INHIBITORY CONCENTRATION MIC, pre-incubated in Human Serum): 32 µg/mL (≈ 41.1 µM)
- MIC (E. coli GC 2203; GC2203, read-out: MINIMAL INHIBITORY CONCENTRATION MIC, pre-incubated in Mouse Serum): 1 µg/mL (≈ 1.29 µM)
- MIC (E. coli GC 2203; GC2203, read-out: MINIMAL INHIBITORY CONCENTRATION MIC, pre-incubated in Water): > 64 µg/mL
- MIC (E. coli GC 3226; GC3226, read-out: MINIMAL INHIBITORY CONCENTRATION MIC, pre-incubated in Human Serum): 32 µg/mL (≈ 41.1 µM)
- MIC (E. coli GC 3226; GC3226, read-out: MINIMAL INHIBITORY CONCENTRATION MIC, pre-incubated in Mouse Serum): 2 µg/mL (≈ 2.57 µM)
- MIC (E. coli GC 3226; GC3226, read-out: MINIMAL INHIBITORY CONCENTRATION MIC, pre-incubated in Water): > 64 µg/mL
- MIC (E. faecalis GC 2265; GC2265, read-out: MINIMAL INHIBITORY CONCENTRATION MIC, pre-incubated in Human Serum): 4 µg/mL (≈ 5.14 µM)
- MIC (E. faecalis GC 2265; GC2265, read-out: MINIMAL INHIBITORY CONCENTRATION MIC, pre-incubated in Mouse Serum): 1 µg/mL (≈ 1.29 µM)
- MIC (E. faecalis GC 2265; GC2265, read-out: MINIMAL INHIBITORY CONCENTRATION MIC, pre-incubated in Water): 4 µg/mL (≈ 5.14 µM)
- MIC (E. coli GC 2271; GC2271, read-out: MINIMAL INHIBITORY CONCENTRATION MIC, pre-incubated in Human Serum): 16 µg/mL (≈ 20.6 µM)
- MIC (E. coli GC 2271; GC2271, read-out: MINIMAL INHIBITORY CONCENTRATION MIC, pre-incubated in Mouse Serum): 1 µg/mL (≈ 1.29 µM)
- MIC (E. coli GC 2271; GC2271, read-out: MINIMAL INHIBITORY CONCENTRATION MIC, pre-incubated in Water): > 64 µg/mL
- MIC (S. aureus GC 6469; GC6469, read-out: MINIMAL INHIBITORY CONCENTRATION MIC, pre-incubated in Human Serum): 2 µg/mL (≈ 2.57 µM)
- MIC (S. aureus GC 6469; GC6469, read-out: MINIMAL INHIBITORY CONCENTRATION MIC, pre-incubated in Mouse Serum): 1 µg/mL (≈ 1.29 µM)
- MIC (S. aureus GC 6469; GC6469, read-out: MINIMAL INHIBITORY CONCENTRATION MIC, pre-incubated in Water): 4 µg/mL (≈ 5.14 µM)
- MIC (E. faecium GC 4556; GC4556, read-out: MINIMAL INHIBITORY CONCENTRATION MIC, pre-incubated in Human Serum): 4 µg/mL (≈ 5.14 µM)
- MIC (E. faecium GC 4556; GC4556, read-out: MINIMAL INHIBITORY CONCENTRATION MIC, pre-incubated in Mouse Serum): 1 µg/mL (≈ 1.29 µM)
- MIC (E. faecium GC 4556; GC4556, read-out: MINIMAL INHIBITORY CONCENTRATION MIC, pre-incubated in Water): 4 µg/mL (≈ 5.14 µM)
- MIC (E. coli GC 2233; GC2233, read-out: MINIMAL INHIBITORY CONCENTRATION MIC, pre-incubated in Human Serum): 16 µg/mL (≈ 20.6 µM)
- MIC (E. coli GC 2233; GC2233, read-out: MINIMAL INHIBITORY CONCENTRATION MIC, pre-incubated in Mouse Serum): 0.5 µg/mL (≈ 0.643 µM)
- MIC (E. coli GC 2233; GC2233, read-out: MINIMAL INHIBITORY CONCENTRATION MIC, pre-incubated in Water): > 64 µg/mL
- MIC (S. pyogenes GC 4563; GC4563, read-out: MINIMAL INHIBITORY CONCENTRATION MIC, pre-incubated in Human Serum): 0.25 µg/mL (≈ 0.321 µM)
- MIC (S. pyogenes GC 4563; GC4563, read-out: MINIMAL INHIBITORY CONCENTRATION MIC, pre-incubated in Mouse Serum): 0.12 µg/mL (≈ 0.154 µM)
- MIC (S. pyogenes GC 4563; GC4563, read-out: MINIMAL INHIBITORY CONCENTRATION MIC, pre-incubated in Water): 0.25 µg/mL (≈ 0.321 µM)
- MIC (E. coli GC 2232; GC2232, read-out: MINIMAL INHIBITORY CONCENTRATION MIC, pre-incubated in Human Serum): 16 µg/mL (≈ 20.6 µM)
- MIC (E. coli GC 2232; GC2232, read-out: MINIMAL INHIBITORY CONCENTRATION MIC, pre-incubated in Mouse Serum): 1 µg/mL (≈ 1.29 µM)
- MIC (E. coli GC 2232; GC2232, read-out: MINIMAL INHIBITORY CONCENTRATION MIC, pre-incubated in Water): > 64 µg/mL
- MIC (E. coli GC 2234; GC2234, read-out: MINIMAL INHIBITORY CONCENTRATION MIC, pre-incubated in Human Serum): 16 µg/mL (≈ 20.6 µM)
- MIC (E. coli GC 2234; GC2234, read-out: MINIMAL INHIBITORY CONCENTRATION MIC, pre-incubated in Mouse Serum): 1 µg/mL (≈ 1.29 µM)
- MIC (E. coli GC 2234; GC2234, read-out: MINIMAL INHIBITORY CONCENTRATION MIC, pre-incubated in Water): > 64 µg/mL
- MIC (P. aeruginosa GC 2214; GC2214, read-out: MINIMAL INHIBITORY CONCENTRATION MIC, pre-incubated in Human Serum): > 64 µg/mL
- MIC (P. aeruginosa GC 2214; GC2214, read-out: MINIMAL INHIBITORY CONCENTRATION MIC, pre-incubated in Mouse Serum): 32 µg/mL (≈ 41.1 µM)
- MIC (P. aeruginosa GC 2214; GC2214, read-out: MINIMAL INHIBITORY CONCENTRATION MIC, pre-incubated in Water): > 64 µg/mL
- MIC (E. coli GC 2231; GC2231, read-out: MINIMAL INHIBITORY CONCENTRATION MIC, pre-incubated in Human Serum): 32 µg/mL (≈ 41.1 µM)
- MIC (E. coli GC 2231; GC2231, read-out: MINIMAL INHIBITORY CONCENTRATION MIC, pre-incubated in Mouse Serum): 1 µg/mL (≈ 1.29 µM)
- MIC (E. coli GC 2231; GC2231, read-out: MINIMAL INHIBITORY CONCENTRATION MIC, pre-incubated in Water): > 64 µg/mL
- MIC (Staph.; MRSA, read-out: Range of MIC, Staph (Mouse Serum)): 1 to 2 µg/mL (≈ 1.29 to 2.57 µM)
- MIC (Staph.; MRSA, read-out: Range of MIC, Staph (Water)): 2 to 4 µg/mL (≈ 2.57 to 5.14 µM)
- MIC (Staph.; read-out: Minimum inhibitory concentration (MIC), Staph (Human Serum)): 1 to 4 µg/mL (≈ 1.29 to 5.14 µM)
- MIC (Staph.; read-out: Minimum inhibitory concentration (MIC), Staph (Water)): 2 to 4 µg/mL (≈ 2.57 to 5.14 µM)
- MIC (E. coli; 20 h, read-out: Range of MIC, E. coli (Mouse Serum)): 0.5 to 2 µg/mL (≈ 0.643 to 2.57 µM)
- MIC (E. coli; read-out: Minimum inhibitory concentration (MIC), E. coli (water)): > 64 µg/mL
- MIC (E. coli; read-out: Range of MIC, E. coli (Water)): > 64 µg/mL
- MIC (S. aureus GC 6466; GC6466, read-out: MINIMAL INHIBITORY CONCENTRATION MIC, pre-incubated in Human Serum): 1 µg/mL (≈ 1.29 µM)
- MIC (S. aureus GC 6466; GC6466, read-out: MINIMAL INHIBITORY CONCENTRATION MIC, pre-incubated in Mouse Serum): 1 µg/mL (≈ 1.29 µM)
- MIC (S. aureus GC 6466; GC6466, read-out: MINIMAL INHIBITORY CONCENTRATION MIC, pre-incubated in Water): 2 µg/mL (≈ 2.57 µM)
- MIC (E. faecium GC 2243; GC2243, read-out: MINIMAL INHIBITORY CONCENTRATION MIC, pre-incubated in Human Serum): 2 µg/mL (≈ 2.57 µM)
- MIC (E. faecium GC 2243; GC2243, read-out: MINIMAL INHIBITORY CONCENTRATION MIC, pre-incubated in Mouse Serum): 0.5 µg/mL (≈ 0.643 µM)
- MIC (E. faecium GC 2243; GC2243, read-out: MINIMAL INHIBITORY CONCENTRATION MIC, pre-incubated in Water): 2 µg/mL (≈ 2.57 µM)
- MIC (S. aureus GC 6335; GC6335, read-out: MINIMAL INHIBITORY CONCENTRATION MIC, pre-incubated in Human Serum): 2 µg/mL (≈ 2.57 µM)
- MIC (S. aureus GC 6335; GC6335, read-out: MINIMAL INHIBITORY CONCENTRATION MIC, pre-incubated in Mouse Serum): 1 µg/mL (≈ 1.29 µM)
- MIC (S. aureus GC 6335; GC6335, read-out: MINIMAL INHIBITORY CONCENTRATION MIC, pre-incubated in Water): 2 µg/mL (≈ 2.57 µM)
- MIC (E. coli GC 2236; GC2236, read-out: MINIMAL INHIBITORY CONCENTRATION MIC, pre-incubated in Human Serum): 32 µg/mL (≈ 41.1 µM)
- MIC (E. coli GC 2236; GC2236, read-out: MINIMAL INHIBITORY CONCENTRATION MIC, pre-incubated in Mouse Serum): 1 µg/mL (≈ 1.29 µM)
- MIC (E. coli GC 2236; GC2236, read-out: MINIMAL INHIBITORY CONCENTRATION MIC, pre-incubated in Water): > 64 µg/mL
Structure (SMILES): Cc1ccc(C(=O)OCOC(=O)N(CC(=O)Nc2cc(N(C)C)c3c(c2O)C(=O)C2=C(O)[C@]4(O)C(=O)C(C(N)=O)=C(O)[C@@H](N(C)C)[C@@H]4C[C@@H]2C3)C(C)(C)C)cc1 [Example 47]
